The subject of this assay is SARS-CoV-2. Kind of assay: In vitro SARS-CoV-2 plaque inhibition assay in Vero E6 cells. It is filed as cell-based.

`COC(=O)N[C@H](C(=O)N[C@@H](Cc1ccccc1)[C@@H](O)CN(Cc1ccc(-c2ccccn2)cc1)NC(=O)[C@@H](NC(=O)OC)C(C)(C)C)C(C)(C)C` [Atazanavir]: the “antiviral effects (plaque inhibition)” value (10 µM, 48 h) was “no antiviral effects”.

For `CC[C@H](NC(=O)[C@H](C)NC)C(=O)N1C[C@@H](O)C[C@H]1Cc1c(-c2[nH]c3cc(F)ccc3c2C[C@@H]2C[C@H](O)CN2C(=O)[C@H](CC)NC(=O)[C@H](C)NC)[nH]c2cc(F)ccc12` [Birinapant], where the note is “10 µM, 48 h”, the “reduction of the production of SARS-CoV-2 plaques” value is 37%. Further, under “Severe acute respiratory syndrome coronavirus 2, Vero C1008, estimated, read-out: IC50 plaque formation”, the IC50 was 18 ± 3.6 µM.

As a reminder, the IC50 is the concentration that inhibits the measured activity by half.
